Common to all, as to type: in vivo
The subject of experiment [1] is Blast (Pyricularia oryzae). The conditions noted are these: foliar spray before inoculation, rice plant (Kin-maze).
The subject of experiment [2] is Sheath blight (Rhizoctonia solani). The experiment in a line: Preventive effect by application against Sheath blight (foliar spray). The conditions noted are these: foliar spray before inoculation, ten-leave-stage rice. The method, then: Preventive Effect by Application Against Sheat Blight (Rhizoctonia solani)
The wettable powders prepared according to the Formulation Examples which were diluted with water to a predetermined concentrations were sprayed to the stems and leaves of ten-leave-stage of rice plant (Kin-maze) cultivated in pots under flooding. After air-drying, the fungous nucleiof Sheath blight (Rhizoctonia solani) was inoculated at the root of the plant. After that, the plant was allowed to stand under humid conditions at 30° C. for one week, and then, the number of the disease lesion was determined to obtain the preventive index according to the criterion of Test Example 1.

Experiment [3] shares this test system. The experiment in a line: Preventive effect by paddy water application against Sheath blight. The conditions noted are these: water-applied 7 days before inoculation. The method, then: Preventive Effect by Paddy Water Application Against Sheath Blight (Rhizoctonia solani)
By using pots of 1/8000 are, the compounds prepared according to the Formulations Examples which were diluted with water to a predetermined concentration were water-applied to ten-leave-stage rice plant (Kin-maze) cultivated under flooding. The treated pots were allowed to stand in a greenhouse for seven days, and the fungus nuclei of Sheath blight (Rhizoctonia solani) was inoculated at the root of the plant. Then, the plant was allowed to stand under humid conditions at 30° C. for one week, and then, the number of the disease lesion was determined to obtain the preventive index according to the criterion of Test Example 1.

The subject of experiment [4] is Helminthosporium leaf spot (Cochliobolus miyabeanus). The experiment in a line: Preventive effect by application against Helminthosporium leaf spot (foliar spray). The conditions noted are these: foliar spray before inoculation, six-leave-stage rice.
The subject of experiment [5] is Blast (Pyricularia oryzae). The conditions noted are these: granules water-applied 7 days before inoculation.
Experiment [6] has as its system Blast (Pyricularia oryzae). The conditions noted are these: sprayed one day after inoculation.

SMILES strings stand for the structures. Read-outs that look alike come from different tables or passages of the source.

Regarding `CC(NC(=O)C(C#N)C(C)(C)C)c1ccc(Cl)cc1Cl` (stereo not shown) [Compound 21, N-[1-(2,4-dichlorophenyl)ethyl]-2-cyano-3,3-dimethylbuthaneamide], the Preventive index in experiment [1] (5 ppm active ingredient) was 4 (Preventive value 85 to 94%).

Take `Cc1nc(C(F)(F)F)c(C(=O)Nc2c(Br)cc(OC(F)(F)F)cc2Br)s1` [Compound 3, N-(2,6-dibromo-4-trifluoromethoxyphenyl)-2-methyl-4-trifluoromethylthiazole-5-carboxamide]: the Preventive index in experiment [2] (10 ppm active ingredient) is on record as 3 (Preventive value 60 to 84%); in experiment [1] (500 ppm active ingredient), 0.

As to `CC(=O)O.CC(=O)O.CC(=O)O.N=C(N)NCCCCCCCCNCCCCCCCCNC(=N)N` [Compound 12, 1,1′-iminodi(octamethylene)diguanidinium triacetate], the Preventive index in experiment [3] (10 g/10a active ingredient) and in experiment [4] (10 ppm active ingredient) was 3 (Preventive value 60 to 84%) throughout.

Consider `Cc1nn(C)c(Cl)c1C(=O)Nc1cccc2c1COC2(C)C` [Compound 4, 5-chloro-1,3-dimethyl-N-(1,1-dimethyl-2-oxa-4-indanyl)pyrazole-4-carboxamide], for which the Preventive index in experiment [5] (200 g/10a active ingredient) was determined as 0.

Take `CNC(=O)/C(=N/OC)c1ccccc1Oc1ccccc1` [Compound 14, 2-methoxyimino-N-methyl-2-(2-phenoxy)phenyl-acetamide]: the Preventive index in experiment [5] (50 g/10a active ingredient), in experiment [2] (50 ppm active ingredient) and in experiment [4] (50 ppm active ingredient) was 3 (Preventive value 60 to 84%) each time.

`CC(C)NC(=O)N1CC(=O)N(c2cc(Cl)cc(Cl)c2)C1=O` [Compound 8, 3-(3,5-dichlorophenyl)-N-isopropyl-2,4-dioxoimidazolidine-1-carboxamide]: the Preventive index in experiment [3] (10 g/10a active ingredient) and in experiment [4] (10 ppm active ingredient) was 3 (Preventive value 60 to 84%) each time.

As for `CC(C)Oc1cccc(NC(=O)c2ccccc2C(F)(F)F)c1` [Compound 1, α,α,α-trifluoro-3′-isopropoxy-O-toluanilide], the Preventive index in experiment [5] (200 g/10a active ingredient) is 0; in experiment [2] (10 ppm active ingredient), 3 (Preventive value 60 to 84%); in experiment [1] (500 ppm active ingredient), 0; in experiment [6] (200 ppm active ingredient), 0.

`CCCCC(O)(Cn1cncn1)c1ccc(Cl)cc1Cl` (racemic) [Compound 10, (RS)-2-(2,4-dichlorophenyl)-1-(1H-1,2,4-triazol-1-yl)hexan-2-ol]: the Preventive index in experiment [3] (10 g/10a active ingredient) and in experiment [4] (10 ppm active ingredient) was 3 (Preventive value 60 to 84%) each time.

Regarding `O=C(Nc1ccccc1)N(Cc1ccc(Cl)cc1)C1CCCC1` [Compound 6, 1-(4-chlorobenzyl)-1-cyclopentyl-3-phenylurea], the Preventive index in experiment [2] (10 ppm active ingredient) is 3 (Preventive value 60 to 84%); in experiment [1] (500 ppm active ingredient), 0.

Consider `O=C1CCc2cccc3c2N1CC3` [Compound 22, 1,2,5,6-tetrahydropyrrolo(3,2,1-i,j)quinolin-4-one], for which the Preventive index in experiment [5] (10 g/10a active ingredient) is given as 4 (Preventive value 85 to 94%).

Turning to `CC(Oc1ccc(Cl)cc1Cl)C(=O)NC(C)(C#N)C(C)C` (stereo not shown) [Compound A, N-(1-cyano-1,2-dimethylpropyl)-2-(2,4-dichlorophenoxy)propanamide], the Preventive index was 3 (Preventive value 60 to 84%) in experiment [5] (10 g/10a active ingredient), 0 in experiment [3] (200 g/10a active ingredient), 0 in experiment [2] (200 ppm active ingredient) and 0 in experiment [4] (200 ppm active ingredient).

For `OCC1=C[C@H](N[C@H]2C[C@H](CO)[C@@H](O[C@@H]3O[C@H](CO)[C@@H](O)[C@H](O)[C@H]3O)[C@H](O)[C@H]2O)[C@H](O)[C@@H](O)[C@@H]1O` [Compound 5, validamycin], the results for the Preventive index in experiment [2] (10 ppm active ingredient) and in experiment [1] (500 ppm active ingredient) were 3 (Preventive value 60 to 84%) and 0, respectively.

For the compound `C/C(=N/Nc1nc(C)cc(C)n1)c1ccccc1C` [Compound 11, (Z)-2′-methylacetophenone 4,6-dimethylpyrimidin-2-ylhydrazone], the Preventive index in experiment [3] (10 g/10a active ingredient) and in experiment [4] (10 ppm active ingredient) was 3 (Preventive value 60 to 84%) in each case.

`C=CCOC1=NS(=O)(=O)c2ccccc21` [Compound 23, 3-allyloxy-1,2-benzoisothiazole-1,1-dioxide]: in experiment [5] (50 g/10a active ingredient), the Preventive index was 3 (Preventive value 60 to 84%).

As to `CO/C=C(/C(=O)OC)c1ccccc1Oc1cc(Oc2ccccc2C#N)ncn1` [Compound 13, methyl (E)-2-{2-[6-(2-cyanophenoxy)pyrimidin-4-yloxy]phenyl}-3-methoxy-acrylate], the Preventive index in experiment [5] (10 g/10a active ingredient), in experiment [2] (10 ppm active ingredient) and in experiment [4] (10 ppm active ingredient) was 3 (Preventive value 60 to 84%) throughout.

As to `CSC(=O)c1cccc2nnsc12` [Compound 24, S-methyl-benzo(1,2,3)-thiadiazole-7-carbothiolate], the Preventive index in experiment [5] (50 g/10a active ingredient) is listed as 3 (Preventive value 60 to 84%).

Turning to `CCOP(=O)(Sc1ccccc1)Sc1ccccc1` [Compound 16, O-ethyl-S,S-diphenyldithiophosphate], in experiment [1] (50 ppm active ingredient), the Preventive index is 3 (Preventive value 60 to 84%).

Consider `Cc1ccccc1C(=O)Nc1cccc(OC(C)C)c1` [Compound 2, 3′-isopropoxy-2-methylbenzanilide], for which the figures for the Preventive index in experiment [2] (10 ppm active ingredient) and in experiment [1] (500 ppm active ingredient) were 2 and 0, respectively.

For `Cc1c(Cl)cc(-c2ccc(=O)[nH]n2)cc1Cl` [Compound 7, 6-(3,5-dichloro-4-methylphenyl)-3(2H)-pyridazinone], the Preventive index in experiment [2] (10 ppm active ingredient) is listed as 2.

On to `C[C@H]1O[C@H](O[C@H]2[C@H](O)[C@@H](O)[C@@H](O)[C@H](O)[C@@H]2O)[C@@H](N)C[C@@H]1NC(=N)C(=O)O` [Compound 19, kasugamycin], for which the Preventive index in experiment [6] (20 ppm active ingredient) is 4 (Preventive value 85 to 94%).

In the case of `CCCCC(C#N)(Cn1cncn1)c1ccc(Cl)cc1` (stereo not shown) [Compound 9, 2-p-chlorophenyl-2-(1H-1,2,4-triazol-1-ylmethyl)hexanenitrile], the Preventive index in experiment [3] (10 g/10a active ingredient) and in experiment [4] (10 ppm active ingredient) was 3 (Preventive value 60 to 84%) throughout.
